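Cultured in 96-well plates, cells were exposed to test compound for 48 hours across five concentrations. Here, GI50 denotes the concentration required for 50% inhibition of growth. Definition used: TGI = concentration required for complete inhibition of growth.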
Columns and labels:
Test in all cases: growth of human tumour cells (NCI), 48 h
CAKI-1 renal = system: CAKI-1 renal
A549 NSCLC = system: A549 NSCLC
DU-145 prostate = system: DU-145 prostate
HOP-62 NSCLC = system: HOP-62 NSCLC
SNB-75 CNS = system: SNB-75 CNS
HOP-92 NSCLC = system: HOP-92 NSCLC
TK-10 renal = system: TK-10 renal
NCI/ADR-RES ovarian = system: NCI/ADR-RES ovarian
MDA-MB-435 = system: MDA-MB-435
NCI-H23 lung = system: NCI-H23 lung
KM12 colon = system: KM12 colon
COLO 205 colon = system: COLO 205 colon
RXF 393 renal = system: RXF 393 renal
MCF7 breast = system: MCF7 breast
EKVX NSCLC = system: EKVX NSCLC
UO-31 renal = system: UO-31 renal
SW-620 colon = system: SW-620 colon
SK-MEL-5 melanoma = system: SK-MEL-5 melanoma
HCC-2998 colon = system: HCC-2998 colon
SN12C renal = system: SN12C renal
SF-268 CNS = system: SF-268 CNS
OVCAR-3 ovarian = system: OVCAR-3 ovarian
T-47D breast = system: T-47D breast
U251 CNS = system: U251 CNS
K-562 leukemia = system: K-562 leukemia
OVCAR-5 ovarian = system: OVCAR-5 ovarian
CCRF-CEM leukemia = system: CCRF-CEM leukemia
HCT-116 colon = system: HCT-116 colon
UACC-62 melanoma = system: UACC-62 melanoma
NCI-H226 lung = system: NCI-H226 lung
786-0 renal = system: 786-0 renal
HT29 colon = system: HT29 colon
OVCAR-4 ovarian = system: OVCAR-4 ovarian
HCT-15 colon = system: HCT-15 colon
SF-295 CNS = system: SF-295 CNS
SK-MEL-28 melanoma = system: SK-MEL-28 melanoma
SNB-19 CNS = system: SNB-19 CNS
HS 578T breast = system: HS 578T breast
OVCAR-8 ovarian = system: OVCAR-8 ovarian
SF-539 CNS = system: SF-539 CNS
UACC-257 melanoma = system: UACC-257 melanoma
MALME-3M melanoma = system: MALME-3M melanoma
SK-OV-3 ovarian = system: SK-OV-3 ovarian
BT-549 breast = system: BT-549 breast
IGROV1 ovarian = system: IGROV1 ovarian
SK-MEL-2 melanoma = system: SK-MEL-2 melanoma
ACHN renal = system: ACHN renal
RPMI-8226 leukemia = system: RPMI-8226 leukemia
LOX IMVI melanoma = system: LOX IMVI melanoma
NCI-H522 lung = system: NCI-H522 lung
MOLT-4 leukemia = system: MOLT-4 leukemia
A498 renal = system: A498 renal
HL-60(TB) leukemia = system: HL-60(TB) leukemia
PC-3 prostate = system: PC-3 prostate
M14 melanoma = system: M14 melanoma
MDA-MB-231 breast = system: MDA-MB-231 breast
NCI-H460 lung = system: NCI-H460 lung
SR leukemia = system: SR leukemia

## C=CC(=O)NCCOc1cccc(Nc2cc(NCCCNC(=O)C3CCC3)c(Br)cn2)c1
CAKI-1 renal
  GI50: 0.434 µM
  TGI: 1.75 µM
A549 NSCLC
  GI50: 0.881 µM
  TGI: 14.7 µM
DU-145 prostate
  GI50: 1.21 µM
  TGI: > 25 µM
HOP-62 NSCLC
  GI50: 0.302 µM
  TGI: 4.98 µM
SNB-75 CNS
  GI50: 0.252 µM
  TGI: 1.38 µM
HOP-92 NSCLC
  GI50: 0.826 µM
  TGI: > 25 µM
TK-10 renal
  GI50: 1.6 µM
  TGI: 7.77 µM
NCI/ADR-RES ovarian
  GI50: 8.74 µM
  TGI: > 25 µM
MDA-MB-435
  GI50: 2.49 µM
  TGI: 6.03 µM
NCI-H23 lung
  GI50: 1.07 µM
  TGI: 7.16 µM
KM12 colon
  GI50: 0.954 µM
  TGI: > 25 µM
COLO 205 colon
  GI50: 0.632 µM
  TGI: 2.1 µM
RXF 393 renal
  GI50: 0.283 µM
  TGI: 0.639 µM
MCF7 breast
  GI50: 0.781 µM
  TGI: 10.3 µM
EKVX NSCLC
  GI50: 2.31 µM
  TGI: 22.5 µM
UO-31 renal
  GI50: 0.372 µM
  TGI: 1.11 µM
SW-620 colon
  GI50: 0.904 µM
  TGI: 6.53 µM
SK-MEL-5 melanoma
  GI50: 1.39 µM
  TGI: 5.24 µM
HCC-2998 colon
  GI50: 2.49 µM
  TGI: 7.59 µM
SN12C renal
  GI50: 0.623 µM
  TGI: > 25 µM
SF-268 CNS
  GI50: 0.482 µM
  TGI: 3.73 µM
OVCAR-3 ovarian
  GI50: 0.836 µM
  TGI: 3.75 µM
T-47D breast
  GI50: 4.49 µM
  TGI: 22.7 µM
U251 CNS
  GI50: 0.851 µM
  TGI: 18.7 µM
K-562 leukemia
  GI50: 1.16 µM
  TGI: > 25 µM
OVCAR-5 ovarian
  GI50: 1.84 µM
  TGI: 10.5 µM
CCRF-CEM leukemia
  GI50: 1.04 µM
  TGI: > 25 µM
HCT-116 colon
  GI50: 0.798 µM
  TGI: > 25 µM
UACC-62 melanoma
  GI50: 2.58 µM
  TGI: 6.87 µM
NCI-H226 lung
  GI50: 0.613 µM
  TGI: > 25 µM
786-0 renal
  GI50: 0.989 µM
  TGI: > 25 µM
HT29 colon
  GI50: 0.548 µM
  TGI: 2.84 µM
OVCAR-4 ovarian
  GI50: 1.26 µM
  TGI: 10.7 µM
HCT-15 colon
  GI50: 1.38 µM
  TGI: 23.3 µM
SF-295 CNS
  GI50: 1.34 µM
  TGI: 23.4 µM
SK-MEL-28 melanoma
  GI50: 1.64 µM
  TGI: 8.78 µM
SNB-19 CNS
  GI50: 1.08 µM
  TGI: 14 µM
HS 578T breast
  GI50: 0.567 µM
  TGI: 1.7 µM
OVCAR-8 ovarian
  GI50: 1.82 µM
  TGI: > 25 µM
SF-539 CNS
  GI50: 0.568 µM
  TGI: 2.21 µM
UACC-257 melanoma
  GI50: 3.34 µM
  TGI: > 25 µM
MALME-3M melanoma
  GI50: 1.46 µM
  TGI: 6.43 µM
SK-OV-3 ovarian
  GI50: 1 µM
  TGI: 4.06 µM
BT-549 breast
  GI50: 0.603 µM
  TGI: 1.93 µM
IGROV1 ovarian
  GI50: 0.963 µM
  TGI: 12.9 µM
SK-MEL-2 melanoma
  GI50: 2.62 µM
  TGI: 6.55 µM
ACHN renal
  GI50: 0.75 µM
  TGI: > 25 µM
RPMI-8226 leukemia
  GI50: 1.66 µM
  TGI: > 25 µM
LOX IMVI melanoma
  GI50: 0.776 µM
  TGI: 5.4 µM
NCI-H522 lung
  GI50: 0.819 µM
  TGI: 4.96 µM
MOLT-4 leukemia
  GI50: 1.37 µM
  TGI: > 25 µM
A498 renal
  GI50: 0.52 µM
  TGI: 1.8 µM
HL-60(TB) leukemia
  GI50: 0.989 µM
  TGI: > 25 µM
PC-3 prostate
  GI50: 1.3 µM
  TGI: 11 µM
M14 melanoma
  GI50: 1.79 µM
  TGI: 7.86 µM
MDA-MB-231 breast
  GI50: 0.478 µM
  TGI: 1.48 µM
NCI-H460 lung
  GI50: 1.12 µM
  TGI: 4.53 µM

## CCOC(=O)/C(=C/c1ccccc1)C(=O)c1ccccc1
CAKI-1 renal
  GI50: 3.04 µM
  TGI: 10.4 µM
A549 NSCLC
  GI50: 4.4 µM
  TGI: 19.9 µM
DU-145 prostate
  GI50: 5.32 µM
  TGI: 17.4 µM
HOP-62 NSCLC
  GI50: 2.01 µM
  TGI: 4.37 µM
SNB-75 CNS
  GI50: 2.95 µM
  TGI: 14.5 µM
HOP-92 NSCLC
  GI50: 3.92 µM
  TGI: 21.8 µM
TK-10 renal
  GI50: 3.41 µM
  TGI: 11.2 µM
NCI/ADR-RES ovarian
  GI50: 3.6 µM
  TGI: 70 µM
MDA-MB-435
  GI50: 2.96 µM
  TGI: 11.5 µM
NCI-H23 lung
  GI50: 3.75 µM
  TGI: 16.5 µM
KM12 colon
  GI50: 2.82 µM
  TGI: 7.54 µM
COLO 205 colon
  GI50: 2.43 µM
  TGI: 5.04 µM
RXF 393 renal
  GI50: 2.04 µM
  TGI: 3.92 µM
MCF7 breast
  GI50: 3.13 µM
  TGI: 15.9 µM
UO-31 renal
  GI50: 1.76 µM
  TGI: 3.55 µM
SW-620 colon
  GI50: 2.77 µM
  TGI: 7.6 µM
SK-MEL-5 melanoma
  GI50: 2.91 µM
  TGI: 9.35 µM
HCC-2998 colon
  GI50: 1.93 µM
  TGI: 3.69 µM
SN12C renal
  GI50: 3.21 µM
  TGI: 12 µM
SF-268 CNS
  GI50: 4.37 µM
  TGI: 21.1 µM
OVCAR-3 ovarian
  GI50: 8.14 µM
  TGI: 20.4 µM
T-47D breast
  GI50: 6.17 µM
  TGI: 32.5 µM
U251 CNS
  GI50: 3.22 µM
  TGI: 13.6 µM
OVCAR-5 ovarian
  GI50: 4.05 µM
  TGI: 16.9 µM
CCRF-CEM leukemia
  GI50: 2.61 µM
  TGI: 9.44 µM
HCT-116 colon
  GI50: 2.04 µM
  TGI: 4.39 µM
UACC-62 melanoma
  GI50: 2.73 µM
  TGI: 9.15 µM
NCI-H226 lung
  GI50: 3.48 µM
  TGI: 18.9 µM
786-0 renal
  GI50: 3.02 µM
  TGI: 8.09 µM
HT29 colon
  GI50: 2.78 µM
  TGI: 5.8 µM
OVCAR-4 ovarian
  GI50: 14.4 µM
  TGI: 35.4 µM
SR leukemia
  GI50: 3.43 µM
  TGI: 18 µM
HCT-15 colon
  GI50: 2.97 µM
  TGI: 11.2 µM
SF-295 CNS
  GI50: 4.19 µM
  TGI: 15.2 µM
SK-MEL-28 melanoma
  GI50: 2.42 µM
  TGI: 6.59 µM
SNB-19 CNS
  GI50: 5.84 µM
  TGI: 20.7 µM
HS 578T breast
  GI50: 3.03 µM
  TGI: 18.8 µM
OVCAR-8 ovarian
  GI50: 2.4 µM
  TGI: 6.79 µM
SF-539 CNS
  GI50: 2.63 µM
  TGI: 7.8 µM
UACC-257 melanoma
  GI50: 2.52 µM
  TGI: 10.1 µM
MALME-3M melanoma
  GI50: 2.94 µM
  TGI: 9.09 µM
SK-OV-3 ovarian
  GI50: 14.4 µM
  TGI: 27.9 µM
BT-549 breast
  GI50: 6.29 µM
  TGI: 19.6 µM
IGROV1 ovarian
  GI50: 2.86 µM
  TGI: 8.05 µM
ACHN renal
  GI50: 2.62 µM
  TGI: 6.99 µM
RPMI-8226 leukemia
  GI50: 2.25 µM
  TGI: 5.98 µM
LOX IMVI melanoma
  GI50: 1.8 µM
  TGI: 3.82 µM
NCI-H522 lung
  GI50: 2.14 µM
  TGI: 4.5 µM
A498 renal
  GI50: 3.08 µM
  TGI: 13.1 µM
PC-3 prostate
  GI50: 4.6 µM
  TGI: 22.7 µM
M14 melanoma
  GI50: 3.77 µM
  TGI: 15.5 µM
MDA-MB-231 breast
  GI50: 3.06 µM
  TGI: 12 µM
NCI-H460 lung
  GI50: 3.27 µM
  TGI: 10.9 µM
